Laboratory results reported in patent US20110076331A1, “Use of Deuterium Oxide as an Elastase Inhibitor” (priority 2008, published 2011).

Legend:
[1] = system: white New Zealand rabbits; assay: Animal model for myocardial reperfusion damage (coronary artery ligature); format: in vivo, rabbit; conditions: intravenous D2O isotonic saline 15 minutes before or 25 minutes after reopening of the coronary artery; vs H2O-treated animals
Method: In an animal model for reperfusion damage a reduced blood supply to the heart muscle tissue was achieved by ligature of a coronary artery in male white New Zealand rabbits, which led to damage (Bidouard, J. P. et al.; SSR69071, an elastase inhibitor, reduces myocardial infarct size following ischemia reperfusion injury, Eur J Pharmacol. 2003; 461:49-52). By thoracotomy a side branch of the left coronary artery was closed by ligature for 30 minutes and then opened again in order to achieve reperfusion over 120 minutes. Before removal of the heart an ink bolus (pelican ink) was introduced to the ascending aorta. To investigate the effect of D2O on reperfusion damage the animals were divided into three groups of two animals each. Two groups received an intravenous treatment with D2O in the form of isotonic saline either 15 minutes before (experimental group 1) or 25 minutes after (experimental group 2) reopening of the coronary artery, the other group (control group) was treated with H2O as isotonic saline. After removal of the heart, unclamping of the aorta, formalin fixation and paraffin embedding the heart was investigated for homogeneity of ink distribution in the capillary system through three cross sections and by immunohistochemistry. The immunohistochemical detection of granulocytes occurred by a-naphthol chloroacetate esterase staining. […]

[2] = system: subjects with the minor form of RBA; assay: Gel treatment of recurring benign aphthosis (RBA); format: in vivo, human; conditions: D2O gel (example 1) three times a day; three days after first application
Method: Eight volunteer subjects with the minor form of RBA (diameter of round to oval erosion is 3-5 mm) at locations of the oral mucosa readily accessible to optical inspection (and especially cheek mucosa and mucosa in the lower jaw area) were randomized into two groups of four subjects each (experimental group and control group) and the size (diameter) of the aphthae (initial value) was determined precisely at 0.5 mm optically. For size determination only the gray-covered eroded surface was considered and the red edge area was not considered. The first aphthosis symptoms of the subjects in both groups were at least 2 days old and at most 4 days old. The experimental group received a D2O gel prepared according to example 1 three times a day applied with an appropriate applicator to the erosion (aphtha). It was ensured that the applied gel covered the entire surface of the aphtha plus a 2-3 mm wide edge and was allowed to act at least for 5 minutes. The control group was treated similarly with an identical dose and application of an H2O prepared according to example 1. […] For the experimental group an average reduction in diameter relative to the initial value of 30±10% can be detected and in the control group an average increase in aphthae diameter by 15±10% was observed.

[3] = system: elastase activity in the blister fluid; assay: Ex vivo bullous pemphigoid blister fluid: degradation of recombinant BP180 antigen; format: biochemical, human; conditions: added to blister fluid; autoradiography after gel electrophoresis; vs untreated control
Method: The blister fluid in patients with bullous pemphigoid was sampled in an ex vivo model (Verraes et al., 2001). Recombinant radioactively-labeled BP180 antigen, the target antigen in this disease, was then added to the blister fluid and decay determined autoradiographically after gel electrophoresis. For inhibition of elastase activity in the blister fluid either D2O or the elastase inhibitor chloromethyl ketone was added to it. An untreated control served as comparison. Both with chloromethyl ketone and with D2O the degradation of the recombinant BP180 antigen could be inhibited, whereas the protein was almost completely degraded by the untreated blister fluid.

Syrian Gold hamsters = assay: D2O aerosols in an animal model of COPD (HNE-induced hemorrhage); format: in vivo, hamster
Method: The employed H2O was distilled and ion-exchanged. Both D2O and H2O were sterile. A Pari LC Plus universal atomizer (PARI GmbH, Starnberg, Germany) was used for aerosolization combined with a Pari universal compressor, which generated 200 mg/min polydispersed aerosol with an average particle size (median diameter) of 2.5 μm for pure H2O and pure D2O and 2.5-4.5 μm for H2O and D2O with additional non-pharmaceutical and/or pharmaceutical agents (operating pressure 2.0 bar, flow rate of the compressor air was 6.0 L/min). The particle size measurement occurred with dynamic light scattering in a flow cell. Aerosol generation occurred at a temperature of 37° C. by corresponding thermostating of the atomizer in a water bath thermostat.
Male Syrian Gold hamsters (average weight 105 g±8 g) were divided into two groups (experimental group and control group) of six hamsters each. The animals of both groups were anesthetized intraperitoneally (ketamine 95 mg/kg and xylazine 17 mg/kg) and then intubated endotracheally by direct laryngoscopy. Both groups received 100 μL of human neutrophil elastase (500 μg/mL in sterile 0.9% NaCl solution) instilled. […] For BAL 2.5 mL 0.9% NaCl solution was repeatedly instilled (total of three times) and the hemoglobin concentration then determined in the instillate speetrophotometrically. […] For the experimental group an average hemoglobin value of 120±20 mOD was measured. […]

Wistar rats = assay: Animal model of infectious peritonitis (S. aureus ATCC 25923), peritoneal lavage; format: in vivo, rat; conditions: peritoneal lavage 4 hours after S. aureus, vs isotonic saline
Method: Male Wistar rats received a catheter for peritoneal dialysis and for induction of peritonitis and for further peritoneal dialysis. A purulent peritonitis was produced by introduction of a suspension of S. aureus ATCC 25923 (1×10^9 c.f.u. in 0.5 mL). After 4 hours peritoneal lavage was carried out either with isotonic saline or with isotonic […]. After the death of the animals, but at the latest after 24 hours, bacterial infestation and the inflammatory reaction in the peritoneum were investigated histologically.

SMILES: [2H]O[2H] [D2O, deuterium oxide]
- heart muscle damage (granulocytes, capillary ink marking) [1]: significantly lower heart muscle damage
- average reduction in aphthae diameter relative to the initial value [2]: 30±10%
- degradation of the recombinant BP180 antigen [3]: inhibited
- inhibition of acute lung damage caused by elastase (hemorrhage) (Syrian Gold hamsters; D2O aerosol 24 hours, from reduction in hemoglobin concentration vs H2O aerosol control group): 60%
- average hemoglobin value in BAL (Syrian Gold hamsters; continuous D2O aerosol in respiration air for 24 hours after HNE instillation): 120±20 mOD
- inflammatory activity in the peritoneum (Wistar rats; histology): lower inflammatory activity
- number of bacteria in the quantitative culture (Wistar rats): reduced number of bacteria
